From article PMC7010297, “How the initiating ribosome copes with ppGpp to translate mRNAs” (PLoS Biology, 2020)
“And” between values parts separate entries of the source, which are not always exact repeats. Equal values may be shown once.

Assays:
[1] = target: T1, 30S IC (30S-bound IF2, Bpy-tRNAi) (Escherichia coli, UniProt P0A705); test: 30S IC formation measured by MST at increasing concentrations of IF2 with guanosine nucleotides; type: binding; conditions: Fig 2A
T1 construct: 6xHis (N); made in house
T1 sequence (P0A705 whole entry, looked up): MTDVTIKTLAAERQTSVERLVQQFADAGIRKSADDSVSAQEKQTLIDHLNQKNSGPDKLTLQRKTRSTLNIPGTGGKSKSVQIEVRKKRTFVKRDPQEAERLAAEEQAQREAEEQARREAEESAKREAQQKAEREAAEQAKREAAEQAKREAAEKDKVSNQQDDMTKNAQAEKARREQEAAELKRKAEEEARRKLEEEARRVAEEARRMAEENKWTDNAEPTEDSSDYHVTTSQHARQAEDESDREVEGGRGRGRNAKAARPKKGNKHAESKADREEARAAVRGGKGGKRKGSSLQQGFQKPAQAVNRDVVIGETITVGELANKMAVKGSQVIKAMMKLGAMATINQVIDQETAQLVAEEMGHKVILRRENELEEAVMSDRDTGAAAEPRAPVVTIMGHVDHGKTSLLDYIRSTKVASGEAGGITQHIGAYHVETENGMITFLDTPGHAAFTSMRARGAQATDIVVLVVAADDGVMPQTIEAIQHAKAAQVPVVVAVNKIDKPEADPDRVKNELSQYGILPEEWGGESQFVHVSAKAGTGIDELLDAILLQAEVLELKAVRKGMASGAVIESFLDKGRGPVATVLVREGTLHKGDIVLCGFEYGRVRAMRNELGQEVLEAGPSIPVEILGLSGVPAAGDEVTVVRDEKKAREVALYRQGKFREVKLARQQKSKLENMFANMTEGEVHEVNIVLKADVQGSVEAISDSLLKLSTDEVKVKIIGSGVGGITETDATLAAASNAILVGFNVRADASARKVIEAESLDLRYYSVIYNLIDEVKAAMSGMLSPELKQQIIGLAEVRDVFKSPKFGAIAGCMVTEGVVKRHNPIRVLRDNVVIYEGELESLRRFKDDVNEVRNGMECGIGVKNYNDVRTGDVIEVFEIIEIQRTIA
Excerpt: (§1) To monitor the interaction of initiator tRNA and 30S ribosomal subunits, we used Microscale Thermophoresis (MST) with a fluorescently labelled initiator tRNA (Bpy-tRNAi) (Fig 1B). MST allows to measure fluorescence in a constrained space. Changes on the readout derive from molecular drifts resulting from small thermal equilibrium perturbations. Upon equilibrium perturbations, the patterns of Bpy-tRNAi migration away from the observation space are related to bound and unbound states (Fig 1B). […] On the contrary, a decrease in thermophoresis indicated the dissociation of Bpy-tRNAi. The relation between fluorescence measured at both equilibriums (Ff to Fi, after and prior to the perturbation, respectively) as a function of ligand concentration allowed to determine dissociation constants of the interaction (Fig 1C).
(§2) Continuous lines indicate nonlinear regression fittings with a quadratic equation. Three measurements were performed; mean and standard deviation are plotted (S1 Data). (B) as (A) to measure the concentration dependence for each tested guanosine nucleotide at constant IF2 (1 μM). […] Continuous lines show best fits using exponential functions. (D) Formation of 70S IC as measured by Bpy-tRNAi accommodation in the P site of the ribosome; 0.1 μM 30S ICs were formed with Bpy-tRNAi and rapidly mixed with 0.3 μM 50S subunits on a stopped-flow apparatus as described in [14]. Colors are as in (C). Continuous lines show best fits using an exponential function for a single reaction step. Each stopped-flow trace results from the mean of 5 to 7 replicates.

70S IC = target: T2, 70S IC (Escherichia coli, UniProt P0A705); test: 70S IC formation by Bpy-tRNAi accommodation, stopped-flow; type: biochemical
T2 construct: 6xHis (N); made in house
T2 sequence (P0A705 whole entry, looked up): as above
Experimental: as §2
(§3) (A) Scheme of 70S IC formation. […] Time traces were analyzed by nonlinear regression with exponential terms. […] Formation of 70S IC, as measured by Bpy-tRNAi accommodation in the absence (F) or presence of 200 μM ppGpp (G). Time traces were analyzed by nonlinear regression with one exponential term. […] Continuous lines show best fits using an exponential function for a single reaction step. All time traces are mean values of 5 to 10 replicates. Bar graphs show mean and standard errors (error bars) derived from the nonlinear regression fitting (D,E,H,I) (S1 Data).
(§4) To measure 70S pre-IC formation, a SX-20 stopped-flow instrument (Applied Photophysics, Leatherhead, UK) was set up for LS recording with an excitation wavelength of 430 nm. Scattered light was measured at an angle of 90° without a filter. Pseudo first-order conditions were approximated by using ≥3-fold excess of 50S subunits over 30S ICs; 0.2 μM 30S ICs were rapidly mixed in the instrument with 0.6 μM 50S at 25 °C. Bpy-tRNAi accommodation was measured essentially as described elsewhere. Briefly, 0.2 μM 30S ICs were formed using Bpy-tRNAi and rapidly mixed with 0.6 μM 50S at 25 °C. Fluorescence was excited at 470 nm and measured after a 495-nm longpass filter. Individual traces (6–11 traces) were averaged, and the resulting kinetic curve was approximated by single (F = A0 + A1*exp (-kapp1*t)) or double (F = A0 + A1*exp (-kapp1*t) + A2*exp (-kapp2*t)) exponential fit using Graphpad Prism 6.0 software (GraphPad, San Diego, California).

[2] = target: T3, 70S pre-IC (50S joining to 30S IC) (Escherichia coli, UniProt P0A705); test: 70S pre-IC formation by light scattering, stopped-flow; type: biochemical; conditions: 30S complexes formed with 0.2 mM nucleotide, mixed with 50S subunits
T3 construct: 6xHis (N); made in house
T3 sequence (P0A705 whole entry, looked up): as above
Experimental: as §2, §3, §4

IF2-bound 30S IC = target: T4, IF2-bound 30S IC (Escherichia coli, UniProt P0A705); test: 30S IC formation by MST, guanosine nucleotide titration; type: binding; conditions: for MST Average / MST Replicates (a.u.): Fig 2B;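 on MST Average: lower thermophoresis signal means Bpy-tRNAi dissociation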;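 on MST Replicates (a.u.): lower thermophoresis signal means Bpy-tRNAi dissociation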
T4 construct: 6xHis (N); made in house
T4 sequence (P0A705 whole entry, looked up): as above
Excerpt: as §1, §2
MST was calculated from the respective fluorescence time dependencies (S3 Fig). […] Symbols as in (B). […] Continuous lines indicate nonlinear regression fittings with quadratic (B and E) or same-site competition (G) functions. Three measurements were performed; mean and standard deviations are plotted (S1 Data).

Compound: Nc1nc2c(ncn2[C@@H]2O[C@H](COP(=O)(O)OP(=O)(O)OP(=O)(O)O)[C@@H](OP(=O)(O)OP(=O)(O)O)[C@H]2O)c(=O)[nH]1 [pppGpp]
- MST Average ([1]; IF2 0.16 µM): 944.96 a.u.
- MST Replicates (a.u.) ([1]; IF2 0.16 µM, in the presence of the nucleotide): 945.84 a.u. (2×) and 943.18 a.u.
- MST Average ([1]; IF2 0.31 µM): 951.85 a.u.
- MST Replicates (a.u.) ([1]; IF2 0.31 µM): 948.28 a.u. and 951.55 a.u. and 955.73 a.u.
- MST Average ([1]; IF2 0.63 µM): 965.81 a.u.
- MST Replicates (a.u.) ([1]; IF2 0.63 µM): 963.82 a.u. and 965.27 a.u. and 968.34 a.u.
- MST Average ([1]; IF2 1.25 µM): 989.55 a.u.
- MST Replicates (a.u.) ([1]; IF2 1.25 µM): 985.24 a.u. and 988.50 a.u. and 994.92 a.u.
- MST Average ([1]; IF2 2.50 µM): 1020.82 a.u.
- MST Replicates (a.u.) ([1]; IF2 2.50 µM): 1014.01 a.u. and 1021.45 a.u. and 1027.00 a.u.
- MST Average ([1]; IF2 5.00 µM): 1015.83 a.u.
- MST Replicates (a.u.) ([1]; IF2 5.00 µM): 1011.56 a.u. and 1015.17 a.u. and 1020.77 a.u.
- kapp of Bpy-tRNAi accommodation (70S IC formation) (70S IC; 30S ICs formed with 0.2 mM nucleotide, mixed with 50S subunits): 1.2 ± 0.2 s^–1
- Bpy-tRNAi accommodation slower than with GTP (70S IC; compared to GTP-bound IF2): 2 fold
- kapp of 70S pre-IC formation (LS) [2]: 2.9 ± 0.3 s^–1
- MST Average (IF2-bound 30S IC; nucleotide 0.005 µM): 927.64 a.u.
- MST Replicates (a.u.) (IF2-bound 30S IC; nucleotide 0.005 µM, constant IF2 (1 μM)): 925.66 a.u. and 928.15 a.u. and 929.12 a.u.
- MST Average (IF2-bound 30S IC; nucleotide 0.01 µM): 929.62 a.u.
- MST Replicates (a.u.) (IF2-bound 30S IC; nucleotide 0.01 µM): 928.28 a.u. and 930.44 a.u. and 930.13 a.u.
- MST Average (IF2-bound 30S IC; nucleotide 0.02 µM): 931.44 a.u.
- MST Replicates (a.u.) (IF2-bound 30S IC; nucleotide 0.02 µM): 929.17 a.u. and 931.64 a.u. and 933.52 a.u.
- MST Average (IF2-bound 30S IC; nucleotide 0.04 µM): 936.26 a.u.
- MST Replicates (a.u.) (IF2-bound 30S IC; nucleotide 0.04 µM): 935.68 a.u. and 936.43 a.u. and 936.67 a.u.
- MST Average (IF2-bound 30S IC; nucleotide 0.08 µM): 942.88 a.u.
- MST Replicates (a.u.) (IF2-bound 30S IC; nucleotide 0.08 µM): 942.08 a.u. and 943.53 a.u. and 943.02 a.u.
- MST Average (IF2-bound 30S IC; nucleotide 0.16 µM): 950.27 a.u.
- MST Replicates (a.u.) (IF2-bound 30S IC; nucleotide 0.16 µM): 947.31 a.u. and 952.19 a.u. and 951.31 a.u.
- MST Average (IF2-bound 30S IC; nucleotide 0.31 µM): 960.78 a.u.
- MST Replicates (a.u.) (IF2-bound 30S IC; nucleotide 0.31 µM): 960.77 a.u. and 960.89 a.u. and 960.69 a.u.
- MST Average (IF2-bound 30S IC; nucleotide 0.63 µM): 981.69 a.u.
- MST Replicates (a.u.) (IF2-bound 30S IC; nucleotide 0.63 µM): 982.02 a.u. and 981.68 a.u. and 981.38 a.u.
- MST Average (IF2-bound 30S IC; nucleotide 1.25 µM): 1004.44 a.u.
- MST Replicates (a.u.) (IF2-bound 30S IC; nucleotide 1.25 µM): 1006.47 a.u. and 1004.17 a.u. and 1002.69 a.u.
- MST Average (IF2-bound 30S IC; nucleotide 2.50 µM): 1012.89 a.u.
- MST Replicates (a.u.) (IF2-bound 30S IC; nucleotide 2.50 µM): 1008.41 a.u. and 1015.77 a.u. and 1014.48 a.u.
- MST Average (IF2-bound 30S IC; nucleotide 5.00 µM): 1025.14 a.u.
- MST Replicates (a.u.) (IF2-bound 30S IC; nucleotide 5.00 µM): 1023.12 a.u. and 1027.23 a.u. and 1025.07 a.u.
- MST Average (IF2-bound 30S IC; nucleotide 10.00 µM): 1030.92 a.u.
- MST Replicates (a.u.) (IF2-bound 30S IC; nucleotide 10.00 µM): 1031.01 a.u. and 1031.12 a.u. and 1030.63 a.u.
- MST Average (IF2-bound 30S IC; nucleotide 20.00 µM): 1013.38 a.u.
- MST Replicates (a.u.) (IF2-bound 30S IC; nucleotide 20.00 µM): 1013.59 a.u. and 1013.77 a.u. and 1012.79 a.u.
- Kd (IF2-bound 30S IC; nucleotide titration at constant IF2 (1 μM), read-out: KD for the IF2-bound 30S IC): 0.5 ± 0.1 µM
